In PMC3172044 (Biopharmaceutics & drug disposition, 2010):

Legend:
human liver microsomes [1] = system: human liver microsomes
[2] = cited from earlier work
human liver microsomes [3] = experiment: Chemical inhibition of GLB metabolite formation in human liver microsomes; conditions: GLB 1.25 μM; for effect on the formation of any of the four metabolites (M1, M2b, M4, M5): SUL […], QUI 0.45 μM, TTEPA 20 μM
[4] = read-out: apparent Km values for GLB metabolism; cited from earlier work
[5] = cited from earlier work; remark: listed apart in the source
CYP3A = conditions: cited from earlier work
CYP2C19 = conditions: cited from earlier work
[6] = substrate: COc1ccc(Cl)cc1C(=O)NCCc1ccc(S(=O)(=O)NC(=O)NC2CCCCC2)cc1; experiment: cells, lysate or membranes named; conditions: substrate depletion, 37.0 °C
[7] = value stated to be within the range
[8] = 1 μM ketoconazole, no inhibitor = 100%
[9] = 4 μM montelukast, no inhibitor = 100%
[10] = other: CYP2C19 supersomes 30 pmol/ml
[11] = other: CYP2C8 supersomes 40 pmol/ml
[12] = other: CYP3A5 supersomes 30 pmol/ml

For `COc1ccc(Cl)cc1C(=O)NCCc1ccc(S(=O)(=O)NC(=O)N[C@H]2CCC[C@@H](O)C2)cc1` (relative stereo) [M2b, 3-cis-hydroxycyclohexyl glyburide (axial)], the “peak area of metabolite as % of that of M5” value (human liver microsomes [1]) is given as roughly 43% and the pharmacological activity [2] is given as “pharmacologically active”.

In the case of `COc1ccc(Cl)cc1C(=O)NCCc1ccc(S(=O)(=O)NC(=O)N[C@@H]2CCCC[C@H]2O)cc1` (relative stereo) [M4, 2-trans-hydroxycyclohexyl glyburide], the “peak area of metabolite as % of that of M5” value (human liver microsomes [1]) is reported as roughly 8%.

For `COc1ccc(Cl)cc1C(=O)NCCc1ccc(S(=O)(=O)NC(=O)N[C@H]2CC[C@H](O)CC2)cc1` [M1, 4-trans-hydroxycyclohexyl glyburide], the “peak area of metabolite as % of that of M5” value (human liver microsomes [1]) is given as “approximately 56%” and the pharmacological activity [2] is given as “pharmacologically active”.

For `COc1ccc(Cl)cc1C(=O)NCCc1ccc(S(=O)(=O)NC(=O)NC2CCCC(O)C2)cc1` (stereo not drawn) [M3, 3-trans-hydroxycyclohexyl glyburide], the “peak area of metabolite as % of that of M5” value (human liver microsomes [1]) was roughly 16%.

With `Nc1ccc(S(=O)(=O)Nc2ccnn2-c2ccccc2)cc1` [Sulfaphenazole, sulfaphenazole] the “effect on the formation of any of the four metabolites (M1, M2b, M4, M5)” value (“effect on the formation” for short) (human liver microsomes [3]) was “no significant effects”.

In the case of `COc1ccc(Cl)cc1C(=O)NCCc1ccc(S(=O)(=O)NC(=O)NC2CCCCC2)cc1` [glyburide, Glyburide], the Km [4] is given as 5 to 11 µM, the peak plasma concentration ([5]; after a single oral dose of 20 mg GLB) is given as “approximately 1.25 μM” and the “free therapeutic plasma concentration” value [5, 7] is given as “approximately 1.25 nM”. The “total therapeutic plasma concentration” value [5, 7] was roughly 0.125 µM.

In the case of `CC(=O)N1CCN(c2ccc(OCC3COC(Cn4ccnc4)(c4ccc(Cl)cc4Cl)O3)cc2)CC1` (stereo not drawn) [ketoconazole], the Ki (CYP3A) is given as […], the “formation of M1, % of the controls” value (human liver microsomes [3]; [8]) is given as “approximately 60%” and the “formation of M4, % of the controls” value (human liver microsomes [3]; [8]) is given as roughly 5%. The “formation of M5, % of the controls” value (human liver microsomes [3]; [8]) was roughly 4%.

In the case of `CC(C)(O)c1ccccc1CC[C@@H](SCC1(CC(=O)O)CC1)c1cccc(/C=C/c2ccc3ccc(Cl)cc3n2)c1` [montelukast], the “formation of M1, % of the controls” value (human liver microsomes [3]; [9]) is reported as “approximately 50%” and the “formation of M4, % of the controls” value (human liver microsomes [3]; [9]) is reported as roughly 65%.

In the case of `COc1ccc2[nH]c([S+]([O-])Cc3ncc(C)c(OC)c3C)nc2c1` (stereo not drawn) [omeprazole], the Ki (CYP2C19) is listed as 3000 nM.

With `C=C[C@H]1C[N@@]2CC[C@H]1C[C@@H]2[C@@H](O)c1ccnc2ccc(OC)cc12` [quinidine] the “effect on the formation” value (human liver microsomes [3]) was “no significant effects”.

With `S=P(N1CC1)(N1CC1)N1CC1` [thioTEPA, triethylenethiophosphoramide] the “effect on the formation” value (human liver microsomes [3]) was “no significant effects”.

With “an ethyl hydroxycyclohexyl glyburide [M5]” the “relative metabolite formation in human liver microsome incubations” value (human liver microsomes [1]) was “major metabolite formed”.

B1: human CYP2C19 (Homo sapiens) (protein)
chain: MDPFVVLVLCLSCLLLLSIWRQSSGRGKLPPGPTPLPVIGNILQIDIKDVSKSLTNLSKIYGPVFTLYFGLERMVVLHGYEVVKEALIDLGEEFSGRGHFPLAERANRGFGIVFSNGKRWKEIRRFSLMTLRNFGMGKRSIEDRVQEEARCLVEELRKTKASPCDPTFILGCAPCNVICSIIFQKRFDYKDQQFLNLMEKLNENIRIVSTPWIQICNNFPTIIDYFPGTHNKLLKNLAFMESDILEKVKEHQESMDINNPRDFIDCFLIKMEKEKQNQQSEFTIENLVITAADLLGAGTETTSTTLRYALLLLLKHPEVTAKVQEEIERVIGRNRSPCMQDRGHMPYTDAVVHEVQRYIDLIPTSLPHAVTCDVKFRNYLIPKGTTILTSLTSVLHDNKEFPNPEMFDPRHFLDEGGNFKKSNYFMPFSAGKRICVGEGLARMELFLFLTFILQNFNLKSLIDPKDLDTTPVVNGFASVPPFYQLCFIPV
In the case of B1, the Km [6, 10] is reported as 15.1 ± 2.3 µM, the kcat [6, 10] is reported as 0.16 ± 0.025 s⁻¹ and the kcat/Km [6, 10] is reported as 10500 ± 333 M⁻¹ s⁻¹.

B2: human CYP2C8 (Homo sapiens) (protein)
chain: MEPFVVLVLCLSFMLLFSLWRQSCRRRKLPPGPTPLPIIGNMLQIDVKDICKSFTNFSKVYGPVFTVYFGMNPIVVFHGYEAVKEALIDNGEEFSGRGNSPISQRITKGLGIISSNGKRWKEIRRFSLTTLRNFGMGKRSIEDRVQEEAHCLVEELRKTKASPCDPTFILGCAPCNVICSVVFQKRFDYKDQNFLTLMKRFNENFRILNSPWIQVCNNFPLLIDCFPGTHNKVLKNVALTRSYIREKVKEHQASLDVNNPRDFIDCFLIKMEQEKDNQKSEFNIENLVGTVADLFVAGTETTSTTLRYGLLLLLKHPEVTAKVQEEIDHVIGRHRSPCMQDRSHMPYTDAVVHEIQRYSDLVPTGVPHAVTTDTKFRNYLIPKGTTIMALLTSVLHDDKEFPNPNIFDPGHFLDKNGNFKKSDYFMPFSAGKRICAGEGLARMELFLFLTTILQNFNLKSVDDLKNLNTTAVTKGIVSLPPSYQICFIPV
B2 showed a Km [6, 11] of 7.7 ± 2.3 µM, a kcat [6, 11] of 0.0417 ± 0.0133 s⁻¹ and a kcat/Km [6, 11] of 5330 ± 500 M⁻¹ s⁻¹.

B3: human CYP3A5 (Homo sapiens) (protein)
chain: MDLIPNLAVETWLLLAVSLVLLYLYGTRTHGLFKRLGIPGPTPLPLLGNVLSYRQGLWKFDTECYKKYGKMWGTYEGQLPVLAITDPDVIRTVLVKECYSVFTNRRSLGPVGFMKSAISLAEDEEWKRIRSLLSPTFTSGKLKEMFPIIAQYGDVLVRNLRREAEKGKPVTLKDIFGAYSMDVITGTSFGVNIDSLNNPQDPFVESTKKFLKFGFLDPLFLSIILFPFLTPVFEALNVSLFPKDTINFLSKSVNRMKKSRLNDKQKHRLDFLQLMIDSQNSKETESHKALSDLELAAQSIIFIFAGYETTSSVLSFTLYELATHPDVQQKLQKEIDAVLPNKAPPTYDAVVQMEYLDMVVNETLRLFPVAIRLERTCKKDVEINGVFIPKGSMVVIPTYALHHDPKYWTEPEEFRPERFSKKKDSIDPYIYTPFGTGPRNCIGMRFALMNMKLALIRVLQNFSFKPCKETQIPLKLDTQGLLQPEKPIVLKVDSRDGTLSGE
With B3 the Km [6, 12] was 4.2 ± 1.5 µM, the kcat [6, 12] was 0.0317 ± 0.0122 s⁻¹ and the kcat/Km [6, 12] was 7670 ± 833 M⁻¹ s⁻¹.
